Test results published in patent publication EP4702986A1, “POLYPEPTIDE AND USE THEREOF” (Biocells (Beijing) Biotech Co., Ltd., priority 2023, dated 2024).
Like-named read-outs stand apart in the source and are kept apart here. Numbered stars: 1 amine (or outer) side, 2 acyl side, 3 side chain; on linkers, the order of the positions; unused ones are H or OH. Bridge positions count the residues as written; N and C are the ends. Side chains are listed from the residue outwards. Ends that are not written are not given here. Peptide text beside a SMILES is read from it. * marks the point of attachment. C18 diacid = O=C(O)CCCCCCCCCCCCCCCCC(=O)*; γGlu = O=C(O)[C@H](CCC(=O)[*:2])N[*:1]; Stearoyl = CCCCCCCCCCCCCCCCCC(=O)*; Fumaroyl = O=C(O)/C=C/C(=O)*; Suc = O=C(CCC(=O)[*:2])[*:1]; AEEA = NCCOCCOCC(=O)O

Key:
[1] = Determination of half-lives of polypeptides (plasma, LC-MS); settings: for half-life: C57 BL/6, mouse, plasma, iv; for AUClast 0-30 min: C57 BL/6 mice, dosage per compound 0.48, 0.96 or 1 mpk
human ETA receptor = target: T1, human ETA receptor (Homo sapiens, UniProt P25101); test: Selectivity of polypeptides on human ETA receptor (IP-One Gq kit, % of positive control ET1); format: cell-based
T1 construct: expressed in transfected cells; host or cells: 293T-17 cells, transient transfection
T1 sequence (P25101 21-427): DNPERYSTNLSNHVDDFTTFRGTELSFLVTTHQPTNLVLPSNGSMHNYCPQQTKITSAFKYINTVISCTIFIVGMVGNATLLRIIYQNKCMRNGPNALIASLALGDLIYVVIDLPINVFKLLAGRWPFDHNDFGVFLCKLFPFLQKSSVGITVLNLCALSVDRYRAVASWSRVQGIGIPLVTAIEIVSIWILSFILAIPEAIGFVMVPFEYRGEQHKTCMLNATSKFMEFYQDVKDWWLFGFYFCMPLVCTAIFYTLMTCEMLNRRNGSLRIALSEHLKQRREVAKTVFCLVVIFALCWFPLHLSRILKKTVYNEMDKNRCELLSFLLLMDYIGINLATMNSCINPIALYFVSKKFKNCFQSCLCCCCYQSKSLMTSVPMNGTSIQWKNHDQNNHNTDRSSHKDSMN
Description: 293T-17 cells were seeded at a density of 650,000 cells per well in a 6-well plate and cultured overnight in an incubator at 37°C and 5% CO2. Afterward, the cells were transfected with an expression vector, PCDNA3.1-hETA which contained a human ETA receptor gene, at a plasmid concentration of 2.5 µg per well. The cells were further cultured for 48 hours, and green fluorescence expression was observed under a fluorescence microscope. The cells were then digested with trypsin and counted. The activity of compounds on the human ETA receptor was determined with the IP-One Gq kit from Cisbio Bioassays. The cells were suspended in Stim Buffer provided in the kit and the cell suspension was added to a 96-well detection plate at 7 µL cell suspension (containing 30,000 cells) per well. The polypeptides to be screened for activity (prepared according to the Preparation Example of the invention) and polypeptide human endothelin ET1 as positive control were dissolved in Stim B to be at a concentration of 2×, and 7 µL was added to the test cells, while 7 µL of PBS solution was added to the cells in the negative control wells. Human endothelin ET1 (ET1: […] (C1-C15,C3-C11)) set forth in SEQ ID No. 85 was used as the positive control polypeptide. The plate was sealed and incubated at 37°C for 1 h in a cell culture incubator. Detection wells, positive control wells, and PBS control wells were each added with 3 µL of IP1 d2 working solution and 3 µL of IP1 Tb cryptotate Antibody working solution. The plate was sealed and incubated in the dark at room temperature (25°C±5°C) for 1 h. The plate seal was removed, and the […] at 665 nm and 620 nm was measured with an ID5 microplate reader. The ratio of the acceptor emission signal to the donor emission signal, i.e., the value of (signal at 665 nm/signal at 620 nm)×10^4, was calculated for each well. With F3 representing the average value of values of signal at 665 nm/signal at 620 nm determined for the test sample at a specific concentration, F5 representing the average value of values of signal at 665 nm/signal at 620 nm determined for the positive control human endothelin ET1 at the same concentration, and T3 representing the average value of values of signal at 665 nm/signal at 620 nm determined for the PBS negative control, the percentage of activity of the test polypeptide sample relative to the positive control sample ET1 = (F3-T3)×100/(F5-T3) (see Table 6). hETA sequence (NCBI accession number L06622.1).

human ETB receptor = target: T2, human ETB receptor (Homo sapiens, UniProt P24530); test: Screening of polypeptides for activity on human ETB receptor (IP-One Gq kit, % of positive control IRL1620); format: cell-based
T2 construct: expressed in transfected cells; host or cells: 293T-17 cells, transient transfection
T2 sequence (P24530 27-442): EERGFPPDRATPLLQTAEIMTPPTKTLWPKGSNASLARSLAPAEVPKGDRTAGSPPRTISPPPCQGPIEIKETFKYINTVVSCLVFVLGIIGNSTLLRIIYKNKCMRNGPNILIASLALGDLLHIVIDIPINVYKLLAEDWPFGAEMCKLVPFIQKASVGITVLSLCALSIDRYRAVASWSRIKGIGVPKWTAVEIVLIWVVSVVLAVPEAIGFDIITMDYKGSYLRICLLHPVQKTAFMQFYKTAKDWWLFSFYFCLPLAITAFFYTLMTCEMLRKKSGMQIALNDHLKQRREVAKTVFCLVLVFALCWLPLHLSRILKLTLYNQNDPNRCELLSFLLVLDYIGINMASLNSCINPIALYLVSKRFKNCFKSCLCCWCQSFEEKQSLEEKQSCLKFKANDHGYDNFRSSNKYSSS
Description: 293T-17 cells were seeded at a density of 650,000 cells per well in a 6-well plate and cultured overnight in an incubator at 37°C and 5% CO2. Afterward, the cells were transfected with an expression vector, PCDNA3.1-hETB which contained a human ETB receptor gene, at a plasmid concentration of 2.5 µg per well. The cells were further cultured for 48 hours, and green fluorescence expression was observed under a fluorescence microscope. The cells were then digested with trypsin and counted. The activity of compounds on the human ETB receptor was determined with the IP-One Gq kit from Cisbio Bioassays. The cells were suspended in Stim Buffer provided in the kit and the cell suspension was added to a 96-well detection plate at 7 µL cell suspension (containing 30,000 cells) per well. The polypeptides to be screened for activity (prepared according to the Preparation Example of the invention) and polypeptide IRL1620 as positive control were dissolved in Stim B to be at a concentration of 2×, and 7 µL was added to the test cells, while 7 µL of PBS solution was added to the cells in the negative control wells. IRL1620 was used as the positive control polypeptide. The plate was sealed and incubated at 37°C for 1 hour in a cell culture incubator. Test wells, positive control wells, and PBS control wells were each added with 3 µL of IP1 d2 working solution and 3 µL of IP1 Tb cryptotate Antibody working solution. The plate was then sealed and incubated in the dark at room temperature (25°C±5°C) for 1 hour. The plate seal was removed, and the […] at 665 nm and 620 nm was measured with an ID5 microplate reader. The ratio of the acceptor emission signal to the donor emission signal, i.e., the value of (signal at 665 nm/signal at 620 nm)×10^4, was calculated for each well. With F1 representing the average value of values of signal at 665 nm/signal at 620 nm determined for the test sample at a specific concentration, F2 representing the average value of values of signal at 665 nm/signal at 620 nm determined for the positive control IRL1620 at the same concentration, and T1 representing the average value of values of signal at 665 nm/signal at 620 nm determined for the PBS negative control, the percentage of activity of the test polypeptide sample relative to the positive control sample IRL1620 is equal to (F1-T1)×100/(F2-T1). hETB sequence (NCBI accession number NM_000115.5).

[2] = read-out: hETAR agonist activity, percentage of activity relative to ET1

Compound | hETAR agonist activity, percentage of activity relative to ET1 (human ETA receptor) [%@100µM] | hETAR agonist activity, percentage of activity relative to ET1 (human ETA receptor; @10µM) [%@10µM] | hETBR agonist activity, percentage of activity relative to IRL1620 (human ETB receptor) [%@100nM] | hETBR agonist activity, percentage of activity relative to IRL1620 (human ETB receptor; @10nM) [%@10nM] | further results
CC[C@H](C)[C@H](NC(=O)[C@H](CC(=O)O)NC(=O)[C@H](CC(C)C)NC(=O)[C@H](Cc1c[nH]cn1)NC(=O)[C@H](C)NC(=O)[C@H](Cc1ccccc1)NC(=O)[C@H](Cc1ccc(O)cc1)NC(=O)[C@@H]1CSSC[C@H](NC(=O)[C@H](CCC(=O)O)NC(=O)[C@H](CC(=O)O)NC(=O)CCC(=O)O)C(=O)N[C@@H](CCC(=O)O)C(=O)N[C@@H](CCC(=O)O)C(=O)N1)C(=O)N[C@H](C(=O)N[C@@H](Cc1c[nH]c2ccccc12)C(=O)O)[C@@H](C)CC [BX-56] (Suc-DECEECYFAHLDIIW-OH; disulfide 3-6) | – | – | – | – | half-life [1]: 8.9 min; AUClast 0-30 min ([1]; i.v.): 1376 ng·h/mL
CCCCCCCCCCCCCCCCCC(=O)NCCOCCOCC(=O)NCCOCCOCC(=O)N[C@@H](CCC(=O)NCCCC[C@H](NC(=O)[C@H](Cc1c[nH]cn1)NC(=O)[C@H](C)NC(=O)[C@H](Cc1ccccc1)NC(=O)[C@H](Cc1ccc(O)cc1)NC(=O)[C@@H](NC(=O)[C@H](C)NC(=O)[C@H](CCC(=O)O)NC(=O)[C@H](CCC(=O)O)NC(=O)[C@H](CC(=O)O)NC(=O)/C=C/C(=O)O)C(C)C)C(=O)N[C@@H](CC(=O)O)C(=O)N[C@H](C(=O)N[C@H](C(=O)N[C@@H](Cc1c[nH]c2ccccc12)C(=O)O)[C@@H](C)CC)[C@@H](C)CC)C(=O)O [BX-69] (Fumaroyl-DEEAVYFAHK([γGlu-AEEA-AEEA-Stearoyl])DIIW-OH) | – | – | – | – | activation at 10 µM (human ETA receptor; [2]): 13.1%; activation at 100 µM (human ETA receptor; [2]): 11.5%; half-life [1]: 30 min; AUClast 0-30 min ([1]; i.v.): 1611 ng·h/mL; T1/2 ([1]; Table 1, mice, i.v.): T1/2=30min;
CC[C@H](C)[C@H](NC(=O)[C@H](CC(=O)O)NC(=O)[C@H](CCCCN)NC(=O)[C@H](Cc1c[nH]cn1)NC(=O)[C@H](C)NC(=O)[C@H](Cc1ccccc1)NC(=O)[C@H](Cc1ccc(O)cc1)NC(=O)[C@@H](NC(=O)[C@H](C)NC(=O)[C@H](CCC(=O)O)NC(=O)[C@H](CCC(=O)O)NC(=O)[C@H](CC(=O)O)NC(=O)/C=C/C(=O)O)C(C)C)C(=O)N[C@H](C(=O)N[C@@H](Cc1c[nH]c2ccccc12)C(=O)O)[C@@H](C)CC [F-BX-5] (Fumaroyl-DEEAVYFAHKDIIW-OH) | – | – | – | – | half-life [1]: < 3 min; AUClast 0-30 min ([1]; i.v.): 127 ng·h/mL
Fum-D cyclo(EEAK)YFAHK(-γE-AEEA-AEEA-ODDA)DVIW [BX-100] | 9.52 | -39.09 | 15.03 | 18.79 | –
Fum-D cyclo(EEAK)YFAHLD(2-Abu)IW [BX-64] | 6.41 | -13.52 | 132.16 | 79.92 | –
Fum-DEE cyclo(EVYFK)HKD(2-Abu)IW [BX-62] | – | – | 129.39 | 99.31 | hETAR agonist activity, percentage of activity relative to ET1 (human ETA receptor; @10nM): -17.37%@10nM; hETAR agonist activity, percentage of activity relative to ET1 (human ETA receptor; @100nM): -19.09%@100nM
Fum-DEEK(-γE-AEEA-AEEA-ODDA)VYFAHLDIIW (Fum-DEEK with lipidated linker N-terminal) [BX-66] | -0.94 | 13.13 | 60.51 | 7.67 | –
Suc-D cyclo(EEAK)YFAHK(-γE-AEEA-AEEA-ODDA)DIIW [BX-77] | -6.32 | -29.53 | 4.69 | -16.59 | –
Suc-D cyclo(EEAK)YFAHK(-γE-AEEA-AEEA-ODDA)DVIW [BX-79] | -12.17 | -46.08 | 19.85 | 2.13 | –
Suc-D cyclo(EEAK)YFAHLD(2-Abu)IW [BX-63] | 4.43 | -15.24 | 122.93 | 90.08 | –
Suc-DEEAVYFAHK(-γE-AEEA-AEEA-ODDA)DVIW (Suc-DEEAVYFAHK([γGlu-AEEA-AEEA-C18 diacid])DVIW) [BX-78] | -23.02 | -6.06 | 23.41 | -14.2 | –
